Source: patent US9399649B2, “Compounds for treating spinal muscular atrophy” (PTC Therapeutics Inc., priority 2012, dated 2016)

Assays:
[1] = test system: full length SMN2 minigene mRNA containing SMN2 exon 7; experiment: SMN2 minigene mRNA splicing RT-qPCR assay in cultured cells; assay type: cell-based, human; settings: Homo sapiens, HEK293-H; HEK293H cells stably transfected with SMN2-A minigene, 24 hours, 7-point concentration curve; concentration giving 1.5-fold full length SMN2 mRNA vs vehicle; read-out: EC1.5x for production of full length SMN2 mRNA
Procedure: The reverse transcription-quantitative PCR-based (RT-qPCR) assay is used to quantify the level of the full length SMN2 minigene mRNA containing SMN2 exon 7 in a HEK293H cell line stably transfected with said minigene and treated with a test compound.
HEK293H cells stably transfected with the SMN2-A minigene construct described above (10,000 cells/well) are seeded in 200 ut, of cell culture medium (DMEM plus 10% FBS, with 200 μg/mL hygromycin) in 96-well flat-bottom plates and the plate is immediately swirled to ensure proper dispersal of cells, forming an even monolayer of cells. Cells are allowed to attach for at least 4-6 hours. Test compounds are serially diluted 3.16-fold in 100% DMSO to generate a 7-point concentration curve. A solution of test compound (1 μL, 200× in DMSO) is added to each cell-containing well and the plate is incubated for 24 hours in a cell culture incubator (37° C., 5% CO2, 100% relative humidity). 2 replicates are prepared for each test compound concentration. The cells are then lysed in Cells-To-Ct lysis buffer and the lysate is stored at −80° C.
Primer SMN Forward A (SEQ ID NO. 1) hybridizes to a nucleotide sequence in exon 7 (nucleotide 22 to nucleotide 40), primer SMN Reverse A (SEQ ID NO. 2) hybridizes to a nucleotide sequence in the coding sequence of Firefly luciferase, SMN Probe A (SEQ ID NO. 3) hybridizes to a nucleotide sequence in exon 7 (nucleotide 50 to nucleotide 54) and exon 8 (nucleotide 1 to nucleotide 21). The combination of these three oligonucleotides detects only SMN1 or SMN2 minigenes (RT-qPCR) and will not detect endogenous SMN1 or SMN2 genes.
The SMN forward and reverse primers are used at final concentrations of 0.4 μM. The SMN probe is used at a final concentration of 0.15 μM. The GAPDH primers are used at final concentrations of 0.2 μM and the probe at 0.15 μM.
The SMN2-minigene GAPDH mix (15 μL total volume) is prepared by combining 7.5 μL of 2×RT-PCR buffer, 0.4 μL of 25×RT-PCR enzyme mix, 0.75 μL of 20×GAPDH primer-probe mix, 4.0075 μL of water, 2 μL of 10-fold diluted cell lysate, 0.06 μL of 100 μM SMN forward primer, 0.06 μL of 100 μM SMN reverse primer, and 0.225 μL of 100 μM SMN probe.
PCR is carried out at the following temperatures for the indicated time: Step 1: 48° C. (15 min); Step 2: 95° C. (10 min); Step 3: 95° C. (15 sec); Step 4: 60° C. (1 min); then repeat Steps 3 and 4 for a total of 40 cycles.
Each reaction mixture contains both SMN2-A minigene and GAPDH primersprobe sets (multiplex design), allowing simultaneous measurement of the levels of two transcripts.
Two SMN spliced products are generated from the SMN2 minigene. The first spliced product containing exon 7, corresponding to full length SMN2 mRNA, is referred to herein using the term “SMN2 minigene FL.” The second spliced product lacking exon 7 is referred to herein using the term “SMN2 minigene Δ7.”
The increase of SMN2 minigene FL mRNA relative to that in cells treated with vehicle control is determined from real-time PCR data using a modified ΔΔCt method (as described in Livak and Schmittgen, Methods, 2001, 25:402-8). The amplification efficiency (E) is calculated from the slope of the amplification curve for SMN2 minigene FL and GAPDH individually. The abundances of SMN2 minigene FL and GAPDH are then calculated as (1+E)^−Ct, where Ct is the threshold value for each amplicon. The abundance of SMN2 minigene FL is normalized to GAPDH abundance. The normalized SMN2 minigene FL abundance from test compound-treated samples is then divided by normalized SMN2 minigene FL abundance from vehicle-treated cells to determine the level of SMN2 FL mRNA relative to vehicle control.

Smn protein = Smn protein assay in cultured cells (SMN HTRF); assay type: cell-based, human; settings: SMA patient fibroblast cells (GM03813), 48 hours; for EC1.5x for Smn protein expression: 7-point concentration curve, concentration producing 1.5 times Smn protein vs DMSO vehicle; for maximum fold (Fold) increase of Smn protein: 7-point concentration data, relative to vehicle control
Procedure: The SMN HTRF (homogeneous time resolved fluorescence) assay is used to quantify the level of Smn protein in SMA patient fibroblast cells treated with test compounds.
Cells are thawed and cultured in DMEM-10% FBS for 72 hours. Cells are trypsinized, counted and re-suspended to a concentration of 25,000 cells/mL in DMEM-10% FBS. The cell suspensions are plated at 5,000 cells per well in a 96 well microtiter plate and incubated for 3 to 5 hours. […] Test compounds are serially diluted 3.16-fold in 100% DMSO to generate a 7-point concentration curve. 1 μL of test compound solution is transferred to cell-containing wells and cells are incubated for 48 hours in a cell culture incubator (37° C., 5% CO2, 100% relative humidity). Triplicate samples are set up for each test compound concentration. After 48 hours, the supernatant is removed from the wells and 25 μL of the RIPA lysis buffer, containing protease inhibitors, is added to the wells and incubated with shaking at room temperature for 1 hour. 25 μL of the diluent is added and then 35 μL of the resulting lysate is transferred to a 384-well plate, where each well contains 5 μL of the antibody solution (1:100 dilution of anti-SMN d2 and anti-SMN kryptate in SMN reconstitution buffer). The plate is centrifuged for 1 minute to bring the solution to the bottom of the wells, then incubated overnight at room temperature. Fluorescence for each well of the plate at 665 nm and 620 nm is measured on an EnVision multilabel plate reader (Perkin-Elmer).
The normalized fluorescence signal is calculated for each sample, Blank and vehicle control well by dividing the signal at 665 nm by the signal at 620 nm. Normalizing the signal accounts for possible fluorescence quenching due to the matrix effect of the lysate. The ΔF value (a measurement of Smn protein abundance as a percent value) for each sample well is calculated by subtracting the normalized average fluorescence for the Blank control wells from the normalized fluorescence for each sample well, then dividing this difference by the normalized average fluorescence for the Blank control wells and multiplying the resulting value by 100. The ΔF value for each sample well represents the Smn protein abundance from test compound-treated samples. The ΔF value for each sample well is divided by the ΔF value for the vehicle control wells to calculate the fold increase in Smn protein abundance relative to the vehicle control.

SMILES | EC (1.5-fold) [1] [µM] | EC1.5x for Smn protein expression (Smn protein) | maximum fold (Fold) increase of Smn protein (Smn protein) | melting point [°C]
COc1ccc(-c2cc3ccc(N4CCNCC4)cc3c(=O)o2)cc1 [Cpd 24, 3-(4-methoxyphenyl)-7-(piperazin-1-yl)-1H-isochromen-1-one] | 0.1 to 0.3 | *** (an EC1.5× between >0.3 nM and ≦1 nM is indicated by three stars (***)) | *** (a fold increase between >1.35 and ≦1.5 is indicated by three stars (***)) | 235 to 238
Cc1cn2cc(-c3cc4ccc(N5CCN(C)CC5)cc4c(=O)o3)cc2c(C)n1 [Cpd 76, 3-(1,3-dimethylpyrrolo[1,2-a]pyrazin-7-yl)-7-(4-methylpiperazin-1-yl)-1H-isochromen-1-one] | ≤ 0.1 | ** (an EC1.5× between >1 μM, and ≦3 nM is indicated by two stars (**)) | *** (a fold increase between >1.35 and ≦1.5 is indicated by three stars (***)) | 219 to 221
CCc1nc(C)cn2cc(-c3cc4ccc(C5=CCNCC5)cc4c(=O)o3)nc12 [Cpd 159, 3-(8-ethyl-6-methylimidazo[1,2-a]pyrazin-2-yl)-7-(1,2,3,6-tetrahydropyridin-4-yl)-1H-isochromen-1-one] | ≤ 0.1 | **** (an EC1.5×≦0.3 nM is indicated by four stars (****)) | ***** (a fold increase >1.65 is indicated by five stars (*****)) | 239 to 241
C[C@@H]1CN(c2ccc3cc(-c4nc5ccccc5s4)oc(=O)c3c2)C[C@H](C)N1 [Cpd 9, 3-(1,3-benzothiazol-2-yl)-7-[(3R,5S)-3,5-dimethylpiperazin-1-yl]-1H-isochromen-1-one] | 3 to 30 | – | * (A maximum fold increase of ≦1.2 is indicated by one star (*)) | 310 to 312
Cc1cn2cc(-c3cc4ccc(N5C[C@@H](C)N(C6CCC6)[C@@H](C)C5)cc4c(=O)o3)nc2cn1 [Cpd 132, 7-[(3R,5S)-4-cyclobutyl-3,5-dimethylpiperazin-1-yl]-3-(6-methylimidazo[1,2-a]pyrazin-2-yl)-1H-isochromen-1-one] | ≤ 0.1 | **** (an EC1.5×≦0.3 nM is indicated by four stars (****)) | ***** (a fold increase >1.65 is indicated by five stars (*****)) | –
Cc1cn2cc(-c3cc4ccc(C5CCN(C6CCC6)CC5)cc4c(=O)o3)nc2c(C)n1 [Cpd 118, 7-(1-cyclobutylpiperidin-4-yl)-3-(6,8-dimethylimidazo[1,2-a]pyrazin-2-yl)-1H-isochromen-1-one] | ≤ 0.1 | **** (an EC1.5×≦0.3 nM is indicated by four stars (****)) | **** (a fold increase between >1.5 and ≦1.65 is indicated by four stars (****)) | –
COc1ccc(-c2cc3ccc(N4CCN(C)CC4)cc3c(=O)o2)cc1OC [Cpd 16, 3-(3,4-dimethoxyphenyl)-7-(4-methylpiperazin-1-yl)-1H-isochromen-1-one] | 0.3 to 1 | – | *** (a fold increase between >1.35 and ≦1.5 is indicated by three stars (***)) | –
Cc1cn2cc(-c3cc4ccc(N5CCN6CCC[C@@H]6C5)cc4c(=O)o3)nc2c(C)n1 [Cpd 70, 3-(6,8-dimethylimidazo[1,2-a]pyrazin-2-yl)-7-[(8aR)-hexahydropyrrolo[1,2-a]pyrazin-2(1H)-yl]-1H-isochromen-1-one] | 0.1 to 0.3 | *** (an EC1.5× between >0.3 nM and ≦1 nM is indicated by three stars (***)) | **** (a fold increase between >1.5 and ≦1.65 is indicated by four stars (****)) | –
Cc1cn2cc(-c3cc4ccc(N5CCN(CCO)[C@@H](C)C5)cc4c(=O)o3)nc2c(C)n1 [Cpd 134, 3-(6,8-dimethylimidazo[1,2-a]pyrazin-2-yl)-7-[(3S)-4-(2-hydroxyethyl)-3-methylpiperazin-1-yl]-1H-isochromen-1-one] | ≤ 0.1 | **** (an EC1.5×≦0.3 nM is indicated by four stars (****)) | ***** (a fold increase >1.65 is indicated by five stars (*****)) | –
CCc1nc(C)cn2cc(-c3cc4ccc(N5CCNCC5)cc4c(=O)o3)nc12 [Cpd 150, 3-(8-ethyl-6-methylimidazo[1,2-a]pyrazin-2-yl)-7-(piperazin-1-yl)-1H-isochromen-1-one] | ≤ 0.1 | **** (an EC1.5×≦0.3 nM is indicated by four stars (****)) | ***** (a fold increase >1.65 is indicated by five stars (*****)) | –
Cc1cn2cc(-c3cc4ccc(N5CCNCC5)cc4c(=O)o3)nc2c(C)n1 [Cpd 62, 3-(6,8-dimethylimidazo[1,2-a]pyrazin-2-yl)-7-(piperazin-1-yl)-1H-isochromen-1-one] | ≤ 0.1 | **** (an EC1.5×≦0.3 nM is indicated by four stars (****)) | ***** (a fold increase >1.65 is indicated by five stars (*****)) | –
Cc1cn2cc(-c3cc4ccc(N5CCN(CCO)[C@H](C)C5)cc4c(=O)o3)nc2cn1 [Cpd 133, 7-[(3R)-4-(2-hydroxyethyl)-3-methylpiperazin-1-yl]-3-(6-methylimidazo[1,2-a]pyrazin-2-yl)-1H-isochromen-1-one] | ≤ 0.1 | **** (an EC1.5×≦0.3 nM is indicated by four stars (****)) | ***** (a fold increase >1.65 is indicated by five stars (*****)) | –
